From patent US20260097111A1, “ETHER LIPIDS FOR HYPERACTIVATION OF MAMMALIAN DENDRITIC CELLS” (priority 2022, published 2026) come the findings set out here.

Molecules are shown by their SMILES.

Test [1] has as its system human moDC. The experiment in a line: Staining moDC for activation marker expression. Type of test: cell-based. How it is done: Staining moDC for Activation Marker Expression. After treatment and supernatant collection, cells were resuspended in 200 μL/well PBS and transferred to 96-well V-bottom plates. To pellet cells and remove supernatant, plates were spun at 400×g for 4 min for this and subsequent steps. Cells were washed again with 200 μL/well PBS and pelleted. Live/dead Near-IR staining dye was diluted 1000-fold in PBS. […] Fc block was diluted 100-fold in FACS buffer, and 100 μL/well was added to cells. Cells were incubated with Fc block for 10 min at 4° C. During incubation primary CCR7 antibody (clone 2H4) was diluted 100-fold in FACS buffer. Cells were pelleted and primary CCR7 antibody was added at 100 μL/well. Cells were incubated at 37° C. for 30 min. Biotinylated rat anti-mouse IgM secondary was prepared by diluting 200-fold in FACS buffer. Cells were washed twice with FACS buffer before 100 μL/well secondary antibody was added. Cells were incubated at 4° C. for 20 min. Tertiary staining antibody cocktail was prepared in a mixture of FACS buffer and Brilliant Stain Buffer (1:1 volume ratio of each buffer). […], CD11c (PE-Cy7), CD209 (PE), CD40 (UV563), CD83 (UV737), CD86 (BV711), and HLA-DR (UV395) were all diluted 200-fold. HLA-ABC (BV605) was diluted 100-fold. […]
For flow cytometry analysis, fluorescence compensation was set up using compensation […]. […]

Test [2] has as its system human moDCs. The experiment in a line: In vitro transwell migration assay towards CCL19. Type of test: cell-based. The settings on record: donor HD87, 10 ng/mL CCL19; FIG. 34A. The protocol: In Vitro Transwell Migration Assay. To test the capacity of human dendritic cells to migrate, an in vitro migration assay was set up. After differentiation into moDC using GM-CSF and IL-4, cells were plated on 10 cm petri dishes at 4×10^6 cells/plate in R10++. Cells were treated with various combinations of 2.85 μM R848, 82.5 μM DGP, and 10 μM MCC950 (final concentrations). Additionally, 50 ng/mL GM-CSF and 25 ng/mL IL-4 was added to the plates. Cell cultures were incubated in a total of 8 mL/plate in a 37° C. incubator on an orbital shaker set at 100 rpm overnight.
Cells were collected from plates and any remaining cells on plates were washed off the plates using PBS. After pelleting cells at 400×g for 5 min, cells were resuspended in R10++ and counted. Cell concentrations were adjusted to 5×10^5 cells/mL and plated in triplicate in the apical chambers of transwells at 1.5×10^5 cells/well. R10++ media containing 0; 20; or 200 ng/mL CCL19 were prepared and added to the basal chambers at 300 μL/well. For each cell treatment condition, control wells without transwell inserts were plated with an equivalent volume of cells and R10++ media. […]
To enumerate migrated DCs, an absolute count was obtained based on the total events acquired of counting beads and live, CD11c+CD209+ single cells. […] Finally, migration was calculated relative to cells treated with only R848 with no CCL19 added.

For the molecule `CCCCCCCCCCCCCCCCCCCCCCOC[C@@H](O)COP(=O)(O)O` [Compound 2, 1-docosyl-sn-glycerol-3-phosphate], the “percentage of CD83+ cells” value in test [1] (2.85 μM R848 and/or 82.5 μM DGP, overnight, FIG. 24A) is recorded as “increased CD83 expression, but increase was not found to be statistically significant”. In addition, the “CD86 MFI” value in test [1] (FIG. 25B) is “significant increases in CD86 expression as compared to unstimulated cells”. In the case of `CC(C)(O)c1coc(S(=O)(=O)NC(=O)Nc2c3c(cc4c2CCC4)CCC3)c1` [MCC950, reference compound], the “migration to the basal chamber” value in test [2] is recorded as “did not inhibit the hypermigration observed with R848+DGP”.
